Experimental findings from patent US20100227853A1, “INHIBITORS OF CYCLIC AMP PHOSPHODIESTERASES” (Trustees of Boston College, priority 2008, published 2010) are described below.

One experiment has as its target PDE4B (Homo sapiens, UniProt Q07343). The experiment is described as follows: in vitro enzyme assay PDE4B (Table 7). The experiment is classed as biochemical. The note with it: 2 micromolar compound; read-out: percent of PDE activity present, PDE4B.
A further experiment addresses PDE7A (Homo sapiens, UniProt Q13946). The experiment is described as follows: in vitro enzyme assay PDE7A. The experiment is classed as biochemical. The note with it: 2 micromolar compound; read-out: percent of PDE activity present, PDE7A. Also noted: made in house; host or cells: E. coli.
For a further experiment, the target named is PDE4D (Homo sapiens, UniProt Q08499). The experiment is described as follows: in vitro enzyme assay PDE4D (Table 7). As to conditions: 2 micromolar compound; read-out: percent of PDE activity present, PDE4D. The experiment is classed as biochemical.
Sequence of PDE4D (Q08499 whole entry): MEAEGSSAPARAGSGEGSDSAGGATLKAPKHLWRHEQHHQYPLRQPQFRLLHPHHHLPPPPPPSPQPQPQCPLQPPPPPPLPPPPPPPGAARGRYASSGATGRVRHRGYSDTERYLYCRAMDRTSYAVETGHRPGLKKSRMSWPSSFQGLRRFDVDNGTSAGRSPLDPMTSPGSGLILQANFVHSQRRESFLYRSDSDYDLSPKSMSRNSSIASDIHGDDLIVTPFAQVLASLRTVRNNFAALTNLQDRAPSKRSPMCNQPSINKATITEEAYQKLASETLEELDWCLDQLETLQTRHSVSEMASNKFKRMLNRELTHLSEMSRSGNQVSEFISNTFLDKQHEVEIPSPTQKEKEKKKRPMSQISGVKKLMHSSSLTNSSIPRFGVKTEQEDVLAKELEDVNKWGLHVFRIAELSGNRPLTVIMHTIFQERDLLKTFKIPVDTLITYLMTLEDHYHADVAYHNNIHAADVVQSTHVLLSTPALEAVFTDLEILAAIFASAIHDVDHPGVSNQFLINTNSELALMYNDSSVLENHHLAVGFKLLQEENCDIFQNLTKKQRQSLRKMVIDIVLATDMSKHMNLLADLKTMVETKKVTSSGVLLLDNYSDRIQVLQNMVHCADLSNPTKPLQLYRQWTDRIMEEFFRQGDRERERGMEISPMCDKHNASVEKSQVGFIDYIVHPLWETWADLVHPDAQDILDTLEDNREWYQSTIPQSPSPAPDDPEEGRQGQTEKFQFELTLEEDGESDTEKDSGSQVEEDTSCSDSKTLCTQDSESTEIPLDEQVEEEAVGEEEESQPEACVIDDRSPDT
Experiment [1] addresses T1, PDE4A1 (Mus musculus, UniProt O89084).
T1 construct: targets used in the assays are full-length proteins (as opposed to simply the catalytic domain); expressed in transfected cells; host or cells: Schizosaccharomyces pombe, PDE gene integrated in place of cgs2
T1 sequence (O89084 1-610 isoform O89084-2): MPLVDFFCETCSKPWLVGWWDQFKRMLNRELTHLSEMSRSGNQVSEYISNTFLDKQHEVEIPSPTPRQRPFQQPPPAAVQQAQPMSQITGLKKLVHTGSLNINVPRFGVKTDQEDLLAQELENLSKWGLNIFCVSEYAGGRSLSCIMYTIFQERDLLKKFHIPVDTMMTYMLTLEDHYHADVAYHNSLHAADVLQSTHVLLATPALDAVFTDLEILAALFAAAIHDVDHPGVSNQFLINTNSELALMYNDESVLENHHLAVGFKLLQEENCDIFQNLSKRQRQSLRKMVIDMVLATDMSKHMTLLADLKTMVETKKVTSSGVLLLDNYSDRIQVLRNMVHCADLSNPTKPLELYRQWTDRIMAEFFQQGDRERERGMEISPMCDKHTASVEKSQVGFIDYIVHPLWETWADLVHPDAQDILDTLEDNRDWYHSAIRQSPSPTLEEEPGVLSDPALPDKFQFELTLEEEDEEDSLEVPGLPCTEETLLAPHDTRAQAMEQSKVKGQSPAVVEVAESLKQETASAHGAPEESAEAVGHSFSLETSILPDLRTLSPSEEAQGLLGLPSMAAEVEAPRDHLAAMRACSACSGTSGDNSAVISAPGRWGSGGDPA
The experiment is described as follows: 5FOA growth assay (high throughput screen, ED50) in fission yeast strain expressing PDE4A1. As to conditions: high throughput 5FOA growth screen; greater than 8.53 = statistically-significant inhibitor. The experiment is classed as cell-based. Summed up: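 Readout is OD600 after 48 h at 30° C in 5FOA medium, starting from 0.5–4×10^5 cells/ml; 5 mM cAMP served as positive control. Yeast expressing mouse PDE4A1 or PDE4B3 with an fbp1-ura4 reporter was first grown to exponential phase in EMM plus 0.5–2.5 mM cAMP. Hits were scored by composite Z scores.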

The next experiment deals with PDE4A (Homo sapiens, UniProt P27815). In words: in vitro enzyme assay PDE4A (Table 7). It counts as biochemical. The note with it: 2 micromolar compound; read-out: percent of PDE activity present, PDE4A.
Sequence of PDE4A (P27815 whole entry, species assumed): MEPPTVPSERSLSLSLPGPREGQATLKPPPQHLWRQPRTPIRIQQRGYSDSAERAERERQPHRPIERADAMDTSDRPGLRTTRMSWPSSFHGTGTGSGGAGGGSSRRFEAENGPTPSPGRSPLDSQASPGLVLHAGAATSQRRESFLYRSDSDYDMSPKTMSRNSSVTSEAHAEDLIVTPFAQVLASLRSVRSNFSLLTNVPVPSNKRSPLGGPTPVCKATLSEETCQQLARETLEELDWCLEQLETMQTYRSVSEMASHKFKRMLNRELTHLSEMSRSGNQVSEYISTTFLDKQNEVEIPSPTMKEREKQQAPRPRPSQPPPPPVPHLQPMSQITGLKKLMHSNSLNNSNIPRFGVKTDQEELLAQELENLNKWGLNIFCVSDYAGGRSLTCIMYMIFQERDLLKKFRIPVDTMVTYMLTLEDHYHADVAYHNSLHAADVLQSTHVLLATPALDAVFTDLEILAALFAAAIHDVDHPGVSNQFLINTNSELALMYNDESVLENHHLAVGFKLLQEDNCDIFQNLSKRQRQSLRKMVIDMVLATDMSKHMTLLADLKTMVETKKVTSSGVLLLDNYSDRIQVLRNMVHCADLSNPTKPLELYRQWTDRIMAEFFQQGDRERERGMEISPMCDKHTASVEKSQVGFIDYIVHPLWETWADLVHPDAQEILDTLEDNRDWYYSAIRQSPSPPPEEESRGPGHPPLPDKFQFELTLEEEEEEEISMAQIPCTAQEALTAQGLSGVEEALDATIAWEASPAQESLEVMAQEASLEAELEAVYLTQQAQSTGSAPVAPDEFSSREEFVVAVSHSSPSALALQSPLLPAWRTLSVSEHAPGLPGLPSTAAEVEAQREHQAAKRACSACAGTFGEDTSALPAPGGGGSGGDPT
The target of experiment [2] is T1, PDE4A1. The experiment is described as follows: cAMP response in yeast strain expressing PDE4A1. The experiment is classed as cell-based, Murine. From the text:
Values represent the average and SD of two or three independent experiments. […] The strains used are as in FIG. 5A, together with strain CHP1141 (PDE8A). Values represent the average and SD of two or three independent experiments.
Thus, PDE inhibition can be indirectly quantitated by measuring the effect of a compound on cAMP levels in target yeast strains.

The test system of experiment [3] is PDE2A, PDE4A, PDE4B, Cgs2. The experiment is described as follows: Parallel high throughput 5FOA growth screens of bioactive libraries. It counts as cell-based, murine PDEs; yeast Cgs2. As to conditions: 3,120 bioactive compounds, average 20 μM. As to the method:
High throughput drug screens were carried out at the Broad Institute's Chemical Biology Program screening facility (Broad Institute, Cambridge, Mass.). Depending upon the strain, cultures were pregrown to exponential phase in EMM complete medium containing from 0.5 to 2.5 mM cAMP to repress fbp1-ura4 transcription. […] Starting cell concentrations ranged from 0.5×10^5 to 4×10^5 cells/ml depending on the screening strain. […] Other positive control dishes contained 5 mM cAMP in the 5FOA medium. Cultures were grown for 48 hours at 30° C., sealed in an airtight container with moist paper towels to prevent evaporation. Optical densities (OD600) of cultures were measured using a microplate reader. Bioinformatic analysis of the results to determine composite Z scores was performed as previously described^30, 31.

Experiment [4] concerns PDE4A, PDE4B, PDE4D, PDE7A, PDE7B, PDE8A, PDE3A. In words: Summary of PDE inhibitor profile. Also noted: key: (1): Strong PDE7A inhibitor, weak to moderate PDE4A, 4B inhibitor; (2): Strong PDE7A and PDE4s (including PDE4D) inhibitor; (3): Strong PDE7A inhibitor. As to conditions: overall classification, Table 18 footnotes.
The target in a further experiment is T2, PDE4D2-CAT (Homo sapiens, UniProt Q08499).
T2 construct: 86-413; made in house; host or cells: E. coli
T2 sequence (Q08499 388-715): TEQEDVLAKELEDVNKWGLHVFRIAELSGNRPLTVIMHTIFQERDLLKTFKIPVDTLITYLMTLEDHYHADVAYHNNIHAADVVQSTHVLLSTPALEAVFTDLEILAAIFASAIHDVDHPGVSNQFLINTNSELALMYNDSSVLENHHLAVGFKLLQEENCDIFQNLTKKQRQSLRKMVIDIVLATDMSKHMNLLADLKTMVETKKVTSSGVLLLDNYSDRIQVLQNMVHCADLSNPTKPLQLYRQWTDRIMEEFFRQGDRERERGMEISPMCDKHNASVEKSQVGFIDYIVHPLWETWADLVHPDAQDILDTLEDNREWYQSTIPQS
In words: in vitro enzyme assay, catalytic fragment of PDE4D2 (residues 86-413). The experiment is classed as biochemical.

The next experiment has as its target T3, PDE8A (Mus musculus, UniProt O88502).
T3 construct: targets used in the assays are full-length proteins (as opposed to simply the catalytic domain); expressed in transfected cells; host or cells: Schizosaccharomyces pombe, PDE gene integrated in place of cgs2 (strains CHP1141, DDP13)
T3 sequence (O88502 1-823): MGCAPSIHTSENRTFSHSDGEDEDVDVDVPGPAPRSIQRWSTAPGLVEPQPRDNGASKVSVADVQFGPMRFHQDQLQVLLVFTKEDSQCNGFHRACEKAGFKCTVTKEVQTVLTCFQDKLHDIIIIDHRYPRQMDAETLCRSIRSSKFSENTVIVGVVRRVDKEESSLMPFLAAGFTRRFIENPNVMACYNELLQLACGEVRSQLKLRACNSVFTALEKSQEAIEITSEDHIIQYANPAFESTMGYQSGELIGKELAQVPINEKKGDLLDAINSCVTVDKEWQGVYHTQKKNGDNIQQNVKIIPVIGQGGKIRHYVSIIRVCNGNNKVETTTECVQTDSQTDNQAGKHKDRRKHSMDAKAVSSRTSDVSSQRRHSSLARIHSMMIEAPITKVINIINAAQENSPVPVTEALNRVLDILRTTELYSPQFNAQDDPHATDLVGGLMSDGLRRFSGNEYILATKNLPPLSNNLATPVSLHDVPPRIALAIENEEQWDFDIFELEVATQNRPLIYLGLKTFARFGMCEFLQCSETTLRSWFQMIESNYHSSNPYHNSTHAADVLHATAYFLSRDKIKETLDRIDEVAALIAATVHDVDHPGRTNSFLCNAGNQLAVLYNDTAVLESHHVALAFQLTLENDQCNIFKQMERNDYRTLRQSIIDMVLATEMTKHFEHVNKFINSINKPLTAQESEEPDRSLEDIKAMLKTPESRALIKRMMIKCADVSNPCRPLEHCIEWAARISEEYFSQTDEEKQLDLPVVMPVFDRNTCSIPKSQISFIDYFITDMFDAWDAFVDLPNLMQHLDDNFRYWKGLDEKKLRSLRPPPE
In words: fbp1-lacZ β-galactosidase reporter assay, PDE8A strain. It counts as cell-based, murine. As for the experimental part:
β-galactosidase assays and characterization of 5FOA-sensitivity were carried out as previously described^10. cAMP assays were performed on exponential phase cells grown in EMM complete medium (3% glucose), using the Assay Designs cAMP EIA kit, according to manufacturer's instructions (Assay Designs, Ann arbor, Mich.).
The effect of known PDE inhibitors on the expression of the fbp1-lacZ fusion in murine PDE-expressing strains was tested. […] For Table 4 β-galactosidase activity was determined from 3 to 4 independent exponential phase cultures. The average±SD represents specific activity per milligram of soluble protein.
(In a reporter assay the amount or activity of a reporter protein is the signal.)

Sequence of PDE7A (Q13946 whole entry): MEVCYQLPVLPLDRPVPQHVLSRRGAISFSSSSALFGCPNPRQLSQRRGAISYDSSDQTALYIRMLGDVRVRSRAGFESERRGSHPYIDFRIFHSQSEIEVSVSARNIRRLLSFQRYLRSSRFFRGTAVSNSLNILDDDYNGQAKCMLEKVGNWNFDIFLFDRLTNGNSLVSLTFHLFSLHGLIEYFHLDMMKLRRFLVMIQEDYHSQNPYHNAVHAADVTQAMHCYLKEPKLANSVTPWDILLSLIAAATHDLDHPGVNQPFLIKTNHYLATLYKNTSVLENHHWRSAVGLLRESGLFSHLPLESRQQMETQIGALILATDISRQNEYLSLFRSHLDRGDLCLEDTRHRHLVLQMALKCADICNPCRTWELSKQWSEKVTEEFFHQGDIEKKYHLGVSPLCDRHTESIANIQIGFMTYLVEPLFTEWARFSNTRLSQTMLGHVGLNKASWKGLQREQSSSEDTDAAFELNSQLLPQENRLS
Sequence of PDE4B (Q07343 whole entry, species assumed): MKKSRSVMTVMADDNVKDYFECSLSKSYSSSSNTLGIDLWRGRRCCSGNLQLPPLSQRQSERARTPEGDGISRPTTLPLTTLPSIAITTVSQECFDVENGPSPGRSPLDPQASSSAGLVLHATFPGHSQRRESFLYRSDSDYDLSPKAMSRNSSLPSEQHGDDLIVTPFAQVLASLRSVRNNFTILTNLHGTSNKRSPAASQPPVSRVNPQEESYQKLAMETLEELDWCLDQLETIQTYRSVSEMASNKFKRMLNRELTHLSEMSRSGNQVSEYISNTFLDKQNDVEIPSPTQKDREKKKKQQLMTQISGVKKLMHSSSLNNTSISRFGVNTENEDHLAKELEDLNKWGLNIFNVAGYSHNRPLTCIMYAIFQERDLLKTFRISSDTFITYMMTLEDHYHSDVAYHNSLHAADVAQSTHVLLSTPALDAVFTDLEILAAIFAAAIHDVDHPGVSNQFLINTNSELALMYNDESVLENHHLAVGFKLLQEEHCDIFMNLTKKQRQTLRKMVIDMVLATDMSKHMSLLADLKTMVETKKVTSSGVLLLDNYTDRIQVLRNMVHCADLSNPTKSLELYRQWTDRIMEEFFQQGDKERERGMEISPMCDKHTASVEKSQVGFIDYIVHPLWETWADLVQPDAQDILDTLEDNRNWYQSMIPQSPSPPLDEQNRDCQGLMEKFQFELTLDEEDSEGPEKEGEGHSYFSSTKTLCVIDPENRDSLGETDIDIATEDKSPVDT

Regarding `Cc1c(C(=O)Nc2ccc3c(c2)OCCO3)sc2ncnc(N3CCc4ccccc4C3)c12` [Compound 58-10], the remaining activity at 2 µM stood at 39% at PDE4B, 84% on PDE7A, 70% at PDE4D and 60% on PDE4A. In addition, at PDE4A1 [1], the “Composite Z score, PDE4A1” value was 32.338.
On to `Cc1cc(C)nc(SCCS(=O)(=O)c2ccc(C(C)(C)C)cc2)n1` [Compound 26], for which the “cAMP Response (% rolipram), 4A1” value on PDE4A1 [2] was determined as 96.00 % rolipram.
In the case of `COc1c2ccoc2cc2oc(C)cc(=O)c12` [visnagin], the “hit in high throughput screens (promotes 5FOA^R growth), in words” value in experiment [3] is on record as “identified”.
The same measure, in the same setting: the value for `Cc1cc2cc3c(C)cc(=O)oc3c(C)c2o1` [trioxsalen] was “identified”.
In the case of `COc1ccc2c(c1)C1(C)CCC(=O)CC1CC2` (single isomer, unassigned) [Compound 39], in experiment [4], the “PDE inhibitor profile (Table 18)” value was 39 (1).
On to `N#Cc1sc2sc(C#N)c(-c3ccco3)c2c1N` [BC30], for which the “PDE4D catalytic domain, 2 uM cpm” value at PDE4D2-CAT (2 uM compound) is on record as 2583 cpm. For the same molecule, the “In vitro activation of PDE4D catalytic domain, % activity” value at PDE4D2-CAT (2 micromolar compound, DMSO = 100) was determined as 139%.
Turning to `OCCN(CCO)c1nc(N2CCCCC2)c2nc(N(CCO)CCO)nc(N3CCCCC3)c2n1` [dipyridamole, Dipyridamole], the “inhibition of PDE8A in yeast, in words” value against PDE8A was “not able to be inhibited”.
`COc1cc(NC(=O)c2sc3ncnc(N4CCCCC4C)c3c2C)cc(OC)c1OC` (centres unmarked) [Compound 58-3]: the remaining activity at 2 µM came out at 15% on PDE4B, 20% at PDE7A, 30% at PDE4D and 14% on PDE4A. Further, the “Composite Z score, PDE4A1” value at PDE4A1 [1] came out at 27.41.
Turning to `Cc1c(C(=O)Nc2ccc(F)cc2F)sc2ncnc(N3CCN(C)CC3)c12` [Compound 58-1], the remaining activity at 2 µM amounted to 64% on PDE4B, 98% on PDE7A, 90% on PDE4D and 84% at PDE4A.
Turning to `Cc1nc(N2CCC(C)CC2)c2c(C)c(C(=O)Nc3c(F)cc(F)cc3Br)sc2n1` [Compound 58-5], the remaining activity at 2 µM at PDE4B amounted to 46%; on PDE7A, 90%; at PDE4D, 68%; on PDE4A it was 69%.
Turning to `COc1c2occc2c(OC)c2c(=O)cc(C)oc12` [khellin], the “hit in high throughput screens (promotes 5FOA^R growth), in words” value in [3] was “identified”.
